Experiments:
[1] = target: T1, recombinant human transglutaminase 2 (Homo sapiens, UniProt P21980); test: Transglutaminase assay (dansylcadaverine incorporation into dimethylcasein, DCC-assay); format: biochemical; conditions: recombinant human TG2 10 nM, dansylcadaverine/dimethylcasein, 37° C.
T1 construct: purchased Zedira T022
T1 sequence (P21980 1-687): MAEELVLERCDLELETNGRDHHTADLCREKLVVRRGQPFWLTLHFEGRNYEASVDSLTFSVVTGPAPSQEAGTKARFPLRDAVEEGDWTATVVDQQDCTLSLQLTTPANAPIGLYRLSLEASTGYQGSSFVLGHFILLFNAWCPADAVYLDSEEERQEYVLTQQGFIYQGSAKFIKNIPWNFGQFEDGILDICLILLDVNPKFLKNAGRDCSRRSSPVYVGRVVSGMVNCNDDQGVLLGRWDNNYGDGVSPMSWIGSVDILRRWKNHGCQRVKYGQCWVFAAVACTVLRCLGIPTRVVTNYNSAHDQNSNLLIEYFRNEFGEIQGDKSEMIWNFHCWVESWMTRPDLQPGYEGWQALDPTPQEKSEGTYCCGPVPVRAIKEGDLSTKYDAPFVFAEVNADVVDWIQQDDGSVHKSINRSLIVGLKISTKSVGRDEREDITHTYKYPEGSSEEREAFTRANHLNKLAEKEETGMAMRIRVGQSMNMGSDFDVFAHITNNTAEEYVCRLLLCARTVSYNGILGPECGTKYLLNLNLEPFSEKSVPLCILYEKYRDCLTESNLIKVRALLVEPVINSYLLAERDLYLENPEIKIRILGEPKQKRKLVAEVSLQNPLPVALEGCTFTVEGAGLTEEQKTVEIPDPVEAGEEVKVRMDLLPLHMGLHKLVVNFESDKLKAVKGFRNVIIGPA
Procedure: For the determination of potency of inhibitors against tissue transglutaminase, the incorporation of dansylcadaverine into dimethylcasein (Zedira product T036, Lorand et al., Anal Biochem, 1971, 44:221-31) was measured using recombinant human transglutaminase 2 (Zedira Product T022).
The tissue transglutaminase is diluted in buffer (50 mM Tris-HCl, 7.5 mM CaCl2, 150 mM NaCl, pH=7.4). The final concentration of TG2 in the assay is 10 nM.
A 10 mM inhibitor stock solution is prepared in DMSO, and from this a serial 1:2-fold dilution series is prepared also in DMSO. Each of the initial dilutions is subsequently diluted 1:50-fold with buffer (50 mM Tris-HCl, 7.5 mM CaCl2, 150 mM NaCl, pH=7.4) to yield the final working dilutions containing 2% (v/v) DMSO.
15 μl of inhibitor working dilution are added per well of a 96 well microtiter plate. As control, 15 μl of a 2% (v/v) DMSO solution prepared using the buffer mentioned above are added per well.
Immediately before starting the assay, 600 μl transglutaminase working solution are added to 11.4 ml assay buffer (50 mM Tris-HCl, 10 mM CaCl2, 10 mM glutathione, 2.5% glycerol, 16.7 μM dansylcadaverine, 4 μM N,N-dimethylcasein, 200 mM NaCl, pH=8.0). 285 μl of this reaction mix are added per well containing the inhibitor.
Increase in fluorescence is measured using λex=330 nm and λem=500 nm at 37° C. for 30 min. A slope of the increase in fluorescence between 20 and 30 min is calculated for determination of the IC50 value (inhibitor concentration at which 50% of the initial activity is blocked).
Analysis of enzymatic activity is performed by calculation of the slope of an increase in fluorescence intensity. IC50 values are calculated by plotting the enzymatic activity (as percentage from control containing 2% DMSO instead of inhibitor) against the inhibitor concentration. IC50 is defined as the inhibitor concentration blocking 50% of initial enzyme activity.

[2] = Log D shake flask method (octanol / PBS pH 7.4, HPLC); format: physicochemical; conditions: octanol/phosphate-buffered saline (PBS); octanol / PBS pH 7.4, shake flask
Procedure: In order to classify the inventive compounds according to their lipophilicity, Log D values (distribution coefficient) were determined by means of the well-established shake flask method, measuring the partition of a compound between an octanol and phosphate-buffered saline (PBS, pH 7.4) by HPLC.

[3] = Caco-2 permeability assay (CacoReady kit); format: in vitro ADME; conditions: human
Procedure: Permeability coefficients (Papp values) were obtained from Caco-2 barrier studies predicting oral/intestinal bioavailability of the tested compounds. The assays were performed by using CacoReady™ ready-to-use kits from ReadyCell according to the manufacturers protocol.

Row | Compound | IC50 [1] | logD [2] | Papp [3]
1 | CCN(CC)C(=O)/C=C/CC[C@H](NC(=O)c1coc(C(C)=O)n1)C(=O)Nc1cccn(CC(=O)NC23CC(C2)C3)c1=O [III-138, (S,E)-6-(2-acetyloxazole-4-carboxamido)-N7-(1-(2-(bicyclo[1.1.1]pentan-1-ylamino)-2-oxoethyl)-2-oxo-1,2-dihydropyridin-3-yl)-N1,N1-diethylhept-2-enediamide] | 250 to 1500 nM | < 1 | < 1 ×10⁻⁶ cm/s
2 | COC(=O)/C=C/CC[C@H](NC(=O)[C@@H]1C[C@H](Br)CN1)C(=O)Nc1cccn(CC(=O)NC2C3CC4CC(C3)CC2C4)c1=O (stereo partly drawn) [III-27, (S,E)-methyl 6-((2S,4S)-4-bromopyrrolidine-2-carboxamido)-7-(1-(2-(2-adamantylamino)-2-oxoethyl)-2-oxo-1,2-dihydropyridin-3-ylamino)-7-oxohept-2-enoate] | 25 to 250 nM | 3 to 5 | < 1 ×10⁻⁶ cm/s
3 | COC(=O)/C=C/CC[C@H](NC(=O)c1oc2ccccc2c1C)C(=O)Nc1cccn(CC2C3CC4CC(C3)CC2C4)c1=O (stereo partly drawn) [III-82, (S,E)-methyl 7-(1-(2-adamantylmethyl)-2-oxo-1,2-dihydropyridin-3-ylamino)-6-(3-methylbenzofuran-2-carboxamido)-7-oxohept-2-enoate] | 250 to 1500 nM | 3 to 5 | 1 to 10 ×10⁻⁶ cm/s
4 | COC(=O)/C=C/CC[C@H](NC(=O)c1oc2ccccc2c1C)C(=O)Nc1cccn(CC23CC4CC(CC(C4)C2)C3)c1=O [III-79, (S,E)-methyl 7-(1-(1-adamantylmethyl)-2-oxo-1,2-dihydropyridin-3-ylamino)-6-(3-methylbenzofuran-2-carboxamido)-7-oxohept-2-enoate] | 250 to 1500 nM | 3 to 5 | 1 to 10 ×10⁻⁶ cm/s
5 | COC(=O)/C=C/CC[C@H](NC(=O)c1cncnc1C)C(=O)Nc1cccn(CC(=O)NC2C3CC4CC2CC(C(=O)O)(C4)C3)c1=O (stereo partly drawn) [III-136, (S,E)-methyl 7-(1-(2-(5-carboxy-2-aminoadamantane)-2-oxoethyl)-2-oxo-1,2-dihydropyridin-3-ylamino)-6-(4-methylpyrimidine-5-carboxamido)-7-oxohept-2-enoate] | 250 to 1500 nM | < 1 | < 1 ×10⁻⁶ cm/s
6 | CCc1c(C(=O)N[C@@H](CC/C=C/C(=O)NC2CCCC2)C(=O)Nc2cccn(CC(=O)NC34CC(C3)C4)c2=O)oc2ccccc12 [III-147, (S,E)-N7-(1-(2-(bicyclo[1.1.1]pentan-1-ylamino)-2-oxoethyl)-2-oxo-1,2-dihydropyridin-3-yl)-N1-cyclopentyl-6-(3-ethylbenzofuran-2-carboxamido)hept-2-enediamide] | 25 to 250 nM | 1 to 3 | 1 to 10 ×10⁻⁶ cm/s
7 | COC(=O)/C=C/CC[C@H](NC(=O)c1c[nH]c(C(N)=O)c1)C(=O)Nc1cccn(CC(=O)NC23CC(C2)C3)c1=O [III-163, (S,E)-methyl 7-(1-(2-(bicyclo[1.1.1]pentan-1-ylamino)-2-oxoethyl)-2-oxo-1,2-dihydropyridin-3-ylamino)-6-(5-carbamoyl-1H-pyrrole-3-carboxamido)-7-oxohept-2-enoate] | 250 to 1500 nM | < 1 | < 1 ×10⁻⁶ cm/s
8 | Cc1c(C(=O)N[C@@H](CC/C=C/S(C)(=O)=O)C(=O)Nc2cccn(CC(=O)NC3C4CC5CC(C4)CC3C5)c2=O)oc2ccccc12 (stereo partly drawn) [III-90, (S,E)-N-(1-(1-(2-(2-adamantylamino)-2-oxoethyl)-2-oxo-1,2-dihydropyridin-3-ylamino)-6-(methylsulfonyl)-1-oxohex-5-en-2-yl)-3-methylbenzofuran-2-carboxamide] | < 25 nM | 1 to 3 | 1 to 10 ×10⁻⁶ cm/s
9 | COC(=O)/C=C/CC[C@H](NC(=O)c1oc2ccccc2c1C)C(=O)Nc1cccn(CC23CC4CC(CC(Br)(C4)C2)C3)c1=O [III-81, (6S, E)-methyl 7-(1-((3-bromo-1-adamantyl)methyl)-2-oxo-1,2-dihydropyridin-3-ylamino)-6-(3-methylbenzofuran-2-carboxamido)-7-oxohept-2-enoate] | 250 to 1500 nM | 3 to 5 | 1 to 10 ×10⁻⁶ cm/s
10 | COC(=O)/C=C/CC[C@H](NC(=O)c1oc2ccccc2c1C)C(=O)Nc1cccn(CC(=O)NC23CC4CC(CC(O)(C4)C2)C3)c1=O [III-50, (S,E)-methyl 7-(1-(2-(3-hydroxyadamantan-1-amino)-2-oxoethyl)-2-oxo-1,2-dihydropyridin-3-ylamino)-6-(3-methylbenzofuran-2-carboxamido)-7-oxohept-2-enoate] | 25 to 250 nM | 1 to 3 | < 1 ×10⁻⁶ cm/s
11 | COC(=O)/C=C/CC[C@H](NC(=O)c1oc2ccccc2c1C)C(=O)Nc1cccn(CC(=O)NC23CC4CC(C2)CC(C(F)(F)F)(C4)C3)c1=O [III-49, (S,E)-methyl 7-(1-(2-(3-trifluoromethyladamantan-1-amino)-2-oxoethyl)-2-oxo-1,2-dihydropyridin-3-ylamino)-6-(3-methylbenzofuran-2-carboxamido)-7-oxohept-2-enoate] | 25 to 250 nM | 3 to 5 | 1 to 10 ×10⁻⁶ cm/s
12 | COC(=O)/C=C/CC[C@H](NC(=O)c1cn(C)nn1)C(=O)Nc1cccn(CC(=O)NC2C3CC4CC(C3)CC2C4)c1=O (stereo partly drawn) [III-103, (S,E)-methyl 7-(1-(2-(2-adamantylamino)-2-oxoethyl)-2-oxo-1,2-dihydropyridin-3-ylamino)-6-(1-methyl-1H-1,2,3-triazole-4-carboxamido)-7-oxohept-2-enoate] | 25 to 250 nM | 1 to 3 | 1 to 10 ×10⁻⁶ cm/s
13 | COC(=O)/C=C/CC[C@H](NC(=O)C1Cc2ccccc2C1)C(=O)Nc1cccn(CC(=O)NC2C3CC4CC(C3)CC2C4)c1=O (stereo partly drawn) [III-12, (S,E)-methyl 6-(2,3-dihydro-1H-indene-2-carboxamido)-7-(1-(2-(2-adamantylamino)-2-oxoethyl)-2-oxo-1,2-dihydropyridin-3-ylamino)-7-oxohept-2-enoate] | < 25 nM | 3 to 5 | 1 to 10 ×10⁻⁶ cm/s
14 | COC(=O)/C=C/CC[C@H](NC(=O)c1oc2ccccc2c1C)C(=O)Nc1cccn(CC(=O)NC23CC4(C)CC(C)(CC(C)(C4)C2)C3)c1=O [III-92, (S,E)-methyl 7-(1-(2-(3,5,7-trimethyl-1-adamantylamino)-2-oxoethyl)-2-oxo-1,2-dihydropyridin-3-ylamino)-6-(3-methylbenzofuran-2-carboxamido)-7-oxohept-2-enoate] | < 25 nM | 3 to 5 | 1 to 10 ×10⁻⁶ cm/s
15 | CCn1c(C(=O)N[C@@H](CC/C=C/C(=O)NC2CCCCC2)C(=O)Nc2cccn(CC(=O)NC34CC(C3)C4)c2=O)cc2ccccc21 [III-148, (S,E)-N7-(1-(2-(bicyclo[1.1.1]pentan-1-ylamino)-2-oxoethyl)-2-oxo-1,2-dihydropyridin-3-yl)-N1-cyclohexyl-6-(1-ethyl-1H-indole-2-carboxamido)hept-2-enediamide] | 25 to 250 nM | 3 to 5 | 1 to 10 ×10⁻⁶ cm/s
16 | COC(=O)/C=C/CC[C@H](NC(=O)c1cc(C(=O)OC)cc([N+](=O)[O-])c1)C(=O)Nc1cccn(CC(=O)NC2C3CC4CC(C3)CC2C4)c1=O (stereo partly drawn) [III-33, (S,E)-methyl 3-(1-(1-(2-(2-adamantylamino)-2-oxoethyl)-2-oxo-1,2-dihydropyridin-3-ylamino)-7-methoxy-1,7-dioxohept-5-en-2-ylcarbamoyl)-5-nitrobenzoate] | < 25 nM | 3 to 5 | < 1 ×10⁻⁶ cm/s
